“And” between values parts separate entries of the source, which are not always exact repeats. Equal entries are not always repeated.
Columns and labels:
DRD1 = DRD1 (Homo sapiens, UniProt P21728); test: β-arrestin2 recruitment (Tango); type: cell-based; settings: agonist mode
DRD5 = DRD5 (Homo sapiens, UniProt P21918); test: β-arrestin2 recruitment (Tango); type: cell-based; settings: Fig_S10e, single replicates
[1] = molecular target: DRD2 (D2 long receptor) wild-type (Homo sapiens, UniProt P14416); test: Radioligand competition binding, [3H]-N-methylspiperone, HEK293T membranes; settings: DRD2; [3H]-methylspiperone (0.8-1.0 nM); read-out: Ki
DRD3 wild-type = DRD3 wild-type (Homo sapiens, UniProt P35462); test: Radioligand competition binding, [3H]-N-methylspiperone; settings: DRD3 wild-type; read-out: pKi ± SEM (converted)
[2] = molecular target: T1, DRD4 (D4.4 variant) wild-type (Homo sapiens, UniProt P21917); test: as above; settings: DRD4; [3H]-methylspiperone (0.8-1.0 nM); read-out: Ki
T1 sequence (P21917 1-419): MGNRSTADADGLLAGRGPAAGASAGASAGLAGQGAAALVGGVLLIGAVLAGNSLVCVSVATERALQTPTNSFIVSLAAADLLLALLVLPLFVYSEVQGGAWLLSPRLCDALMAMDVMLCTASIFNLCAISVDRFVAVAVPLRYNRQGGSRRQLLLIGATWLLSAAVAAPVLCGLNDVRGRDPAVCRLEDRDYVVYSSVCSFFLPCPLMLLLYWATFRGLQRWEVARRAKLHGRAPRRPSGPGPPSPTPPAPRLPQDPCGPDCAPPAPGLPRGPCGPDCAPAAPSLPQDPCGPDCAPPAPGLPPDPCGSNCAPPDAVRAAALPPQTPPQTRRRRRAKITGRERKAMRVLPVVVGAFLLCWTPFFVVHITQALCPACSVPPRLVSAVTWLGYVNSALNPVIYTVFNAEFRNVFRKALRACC

DRD2 (D2 long receptor) = DRD2 (D2 long receptor) (Homo sapiens, UniProt P14416); test: Gαi/o-mediated cAMP inhibition (GloSensor split-luciferase cAMP reporter), HEK293T; type: cell-based; settings: DRD2; antagonist, Gαi/o-mediated cAMP inhibition; read-out: EC50 ± SEM (antagonist);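 note: compounds applied 15 min at room temperature, then luciferin plus 400 nM isoproterenol to raise cAMP through endogenous β2-adrenergic receptors, luminescence read 15 min later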
5HT6 = molecular target: T2, 5HT6 (Homo sapiens, UniProt P50406); test: β-arrestin2 recruitment (Tango); type: cell-based; settings: Fig_S10p, agonist mode
T2 construct: expressed in transfected cells; host or cells: HTLA cells expressing TEV-fused β-arrestin2

5HT7A = molecular target: T3, 5HT7A (Homo sapiens, UniProt P34969); test: β-arrestin2 recruitment (Tango); type: cell-based; settings: Fig_S10q, agonist mode
T3 construct: expressed in transfected cells; host or cells: HTLA cells expressing TEV-fused β-arrestin2
T3 sequence (P34969 1-445 isoform P34969-2): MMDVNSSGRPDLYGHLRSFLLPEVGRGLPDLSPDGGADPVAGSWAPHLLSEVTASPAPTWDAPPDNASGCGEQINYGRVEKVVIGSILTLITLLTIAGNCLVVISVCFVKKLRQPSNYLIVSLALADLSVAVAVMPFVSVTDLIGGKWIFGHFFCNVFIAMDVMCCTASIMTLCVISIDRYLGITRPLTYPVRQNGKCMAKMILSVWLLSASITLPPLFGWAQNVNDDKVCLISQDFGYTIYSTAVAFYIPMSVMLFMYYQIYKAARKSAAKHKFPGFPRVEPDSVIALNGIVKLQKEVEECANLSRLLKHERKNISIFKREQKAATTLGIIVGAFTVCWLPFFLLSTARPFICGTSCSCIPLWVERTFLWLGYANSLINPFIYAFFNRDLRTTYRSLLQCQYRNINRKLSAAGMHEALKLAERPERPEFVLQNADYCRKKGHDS

T2 sequence (P50406 whole entry, the tested form may be a part): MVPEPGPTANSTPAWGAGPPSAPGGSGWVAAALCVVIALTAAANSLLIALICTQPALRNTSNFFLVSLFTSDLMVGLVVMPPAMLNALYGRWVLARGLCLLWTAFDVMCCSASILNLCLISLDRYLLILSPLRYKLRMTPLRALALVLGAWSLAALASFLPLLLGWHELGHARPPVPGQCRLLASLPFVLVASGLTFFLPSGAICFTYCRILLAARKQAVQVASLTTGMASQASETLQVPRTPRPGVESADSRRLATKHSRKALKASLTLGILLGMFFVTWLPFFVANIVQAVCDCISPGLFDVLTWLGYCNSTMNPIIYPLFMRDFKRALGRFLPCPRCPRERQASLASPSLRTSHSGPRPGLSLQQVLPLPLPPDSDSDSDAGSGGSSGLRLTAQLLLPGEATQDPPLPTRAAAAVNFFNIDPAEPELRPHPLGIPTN
DRD5, sequence (P21918 whole entry): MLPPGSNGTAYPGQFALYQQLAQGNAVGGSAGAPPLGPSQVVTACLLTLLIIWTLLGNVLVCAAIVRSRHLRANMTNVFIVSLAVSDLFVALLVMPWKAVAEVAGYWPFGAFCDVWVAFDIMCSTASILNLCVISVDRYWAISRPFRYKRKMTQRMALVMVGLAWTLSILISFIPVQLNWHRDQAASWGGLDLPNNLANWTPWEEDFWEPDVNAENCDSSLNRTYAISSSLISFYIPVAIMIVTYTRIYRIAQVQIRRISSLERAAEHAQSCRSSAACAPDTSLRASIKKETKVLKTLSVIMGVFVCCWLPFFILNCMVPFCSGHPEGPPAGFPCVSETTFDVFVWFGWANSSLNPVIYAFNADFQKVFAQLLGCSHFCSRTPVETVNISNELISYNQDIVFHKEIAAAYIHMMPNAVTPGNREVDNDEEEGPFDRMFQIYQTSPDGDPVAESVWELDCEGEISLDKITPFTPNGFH
DRD1, sequence (P21728 whole entry): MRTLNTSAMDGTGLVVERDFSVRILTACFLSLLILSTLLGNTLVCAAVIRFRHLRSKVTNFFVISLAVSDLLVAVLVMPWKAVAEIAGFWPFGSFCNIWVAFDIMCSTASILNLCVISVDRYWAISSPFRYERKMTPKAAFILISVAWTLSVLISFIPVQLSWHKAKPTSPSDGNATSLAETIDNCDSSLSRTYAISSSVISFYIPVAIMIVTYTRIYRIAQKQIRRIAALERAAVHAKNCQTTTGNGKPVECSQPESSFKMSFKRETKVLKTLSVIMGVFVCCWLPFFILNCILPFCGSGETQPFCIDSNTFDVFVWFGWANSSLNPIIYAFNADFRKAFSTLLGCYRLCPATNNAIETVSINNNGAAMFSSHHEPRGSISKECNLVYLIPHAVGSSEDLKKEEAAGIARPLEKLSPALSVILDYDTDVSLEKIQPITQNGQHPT
DRD2 (D2 long receptor), sequence (P14416 whole entry): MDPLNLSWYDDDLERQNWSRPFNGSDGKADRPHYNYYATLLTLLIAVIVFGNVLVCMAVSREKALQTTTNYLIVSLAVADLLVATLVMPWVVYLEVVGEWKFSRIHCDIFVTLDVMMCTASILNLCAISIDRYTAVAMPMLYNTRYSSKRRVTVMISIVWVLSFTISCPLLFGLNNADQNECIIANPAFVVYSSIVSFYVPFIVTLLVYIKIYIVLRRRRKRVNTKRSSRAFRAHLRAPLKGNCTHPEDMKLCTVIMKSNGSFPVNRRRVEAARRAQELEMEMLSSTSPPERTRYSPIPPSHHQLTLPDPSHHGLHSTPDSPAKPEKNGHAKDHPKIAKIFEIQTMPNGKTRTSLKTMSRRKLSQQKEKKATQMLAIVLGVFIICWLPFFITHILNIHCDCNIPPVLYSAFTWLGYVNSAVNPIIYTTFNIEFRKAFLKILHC
DRD2 (D2 long receptor) wild-type, sequence (P14416 whole entry): as above
DRD3 wild-type, sequence (P35462 whole entry): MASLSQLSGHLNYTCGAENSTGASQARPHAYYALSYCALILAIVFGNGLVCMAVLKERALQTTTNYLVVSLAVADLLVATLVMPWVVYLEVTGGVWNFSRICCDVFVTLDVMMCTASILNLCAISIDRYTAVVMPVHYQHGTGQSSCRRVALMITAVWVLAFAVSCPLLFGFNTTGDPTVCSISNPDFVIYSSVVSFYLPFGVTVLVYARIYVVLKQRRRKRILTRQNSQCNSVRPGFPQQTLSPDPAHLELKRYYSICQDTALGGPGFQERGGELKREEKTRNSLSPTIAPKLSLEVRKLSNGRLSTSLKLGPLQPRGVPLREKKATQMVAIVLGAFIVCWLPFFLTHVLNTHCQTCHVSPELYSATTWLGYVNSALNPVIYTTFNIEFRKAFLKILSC

Oc1ccc2c(c1O)Oc1cccc3c1C2CNC3 (stereo not drawn) [dinoxyline]
Fig_S10d concentration-response source data, compound alone (replicates) (DRD1; Log[Drug] -6.52): 10.0073
Fig_S10d concentration-response source data, compound alone (replicates) (DRD1; Log[Drug] -7): 4.307 and 1.205 and 1.227 and 4.484 and 2.979 and 2.557 and 2.04 and -0.1301 and 1.092
Fig_S10d concentration-response source data, compound alone (replicates) (DRD1; Log[Drug] -7.52): 1.579 and 3.303 and 0.5491 and 3.089 and 1.082 and 1.378 and -0.7612 and -0.8315 and -0.809
Fig_S10d concentration-response source data, compound alone (replicates) (DRD1; Log[Drug] -8): 1.257 and 1.231 and 1.566 and 0.913 and 0.3538 and 0.1991 and -0.676 and -1.057 and 0.2893
Fig_S10d concentration-response source data, compound alone (replicates) (DRD1; Log[Drug] -8.52): 0.2231 and 2.08 and 8.446 and 0.2359 and 0.07888 and 0.01718 and -0.4841 and -1.204 and -0.2743
Fig_S10d concentration-response source data, compound alone (replicates) (DRD1; Log[Drug] -9): 0.9179 and 0.03861 and 0.7078 and 0.082 and -0.04373 and 0.0164 and -1.424 and -1.237 and -0.4972
Fig_S10d concentration-response source data, compound alone (replicates) (DRD1; Log[Drug] -9.52): 0.9179 and 1.428 and 0.9008 and 0.3038 and -0.1367 and -0.264 and -0.706 and -1.205 and -0.04775
Fig_S10d concentration-response source data, compound alone (replicates) (DRD1; Log[Drug] -10): -0.2788 and -0.1244 and 1.737 and -0.3538 and -0.2647 and 0.1437 and -1.4279 and -0.8642 and -0.7996
Fig_S10d concentration-response source data, compound alone (replicates) (DRD1; Log[Drug] -10.52): -0.2788 and 0.2273 and 1.767 and 0.02109 and 0.9895 and -0.1132 and 0.1507 and -0.4242 and -0.1601
Fig_S10d concentration-response source data, compound alone (replicates) (DRD1; Log[Drug] -11): 0.5834 and 0.2231 and 0.5491 and -0.5092 and -0.2671 and 0.4842 and -1.071 and -0.647 and 0.1395
Fig_S10d concentration-response source data, compound alone (replicates) (DRD1; Log[Drug] -11.52): -0.1115 and 1.072 and 4.68 and 0.05545 and 0.239 and 0.3608 and 3.618 and -0.7331 and -0.985
Fig_S10d concentration-response source data, compound alone (replicates) (DRD1; Log[Drug] -12): -0.2702 and -0.1115 and 0.3903 and -0.474 and -0.4764 and -0.3218 and 3.0206 and -0.9897 and -0.8633
β-arrestin2 recruitment response, agonist mode (normalized) (DRD5; Log[Drug] -6.52): 50.9959 and 44.5818 and 81.7753 and 73.11 and 53.8362
β-arrestin2 recruitment response, agonist mode (normalized) (DRD5; Log[Drug] -7): 44.4286 and 33.2805 and 57.3924 and 47.0403 and 55.7358 and 61.3062 and 41.0525 and 43.6565
β-arrestin2 recruitment response, agonist mode (normalized) (DRD5; Log[Drug] -7.52): 33.6662 and 25.4134 and 56.8006 and 39.9881 and 23.8046 and 44.1458 and 17.6483 and 11.4811
β-arrestin2 recruitment response, agonist mode (normalized) (DRD5; Log[Drug] -8): 7.481 and 4.412 and 28.4866 and 15.182 and 15.3449 and 6.879 and 1.575 and 2.947
β-arrestin2 recruitment response, agonist mode (normalized) (DRD5; Log[Drug] -8.52): 7.423 and 8.3056 and 10.7658 and 9.092 and 10.1938 and 2.126 and 2.041 and 8.64
β-arrestin2 recruitment response, agonist mode (normalized) (DRD5; Log[Drug] -9): 0.5231 and -1.384 and 1.379 and 3.9644 and 2.988 and 7.407 and -1.292 and -1.934 and 0.3332
β-arrestin2 recruitment response, agonist mode (normalized) (DRD5; Log[Drug] -9.52): 0.9986 and 0.1427 and 0.1268 and 2.609 and 1.523 and 1.227 and -2.233 and -1.075 and -0.4405
β-arrestin2 recruitment response, agonist mode (normalized) (DRD5; Log[Drug] -10): -2.61 and -1.543 and -0.2906 and 1.406 and 1.213 and 1.593 and -1.565 and -1.034 and 0.3624
β-arrestin2 recruitment response, agonist mode (normalized) (DRD5; Log[Drug] -10.52): 3.973 and -1.363 and 0.9616 and 3.254 and 1.908 and 2.385 and -0.2872 and 0.4781 and -0.9479
β-arrestin2 recruitment response, agonist mode (normalized) (DRD5; Log[Drug] -11): -1.141 and 0.9563 and 6.05 and 0.4043 and -0.1448 and 1 and -1.291 and -1.255 and 0.5855
β-arrestin2 recruitment response, agonist mode (normalized) (DRD5; Log[Drug] -11.52): 0.7872 and 1.828 and -1.791 and 1.074 and 2.305 and 1.525 and -1.001 and -2.087 and -0.1993
β-arrestin2 recruitment response, agonist mode (normalized) (DRD5; Log[Drug] -12): -1.5322 and -0.4861 and -0.05283 and -0.02136 and -0.01028 and 2.843 and -2.166 and -0.9521 and 0.6036

CCCCN(C)C(C)C(=O)Nc1cc([N+](=O)[O-])ccc1OC (stereo not drawn) [O9LE9]
Ki [1]: 3.8 µM
Ki (DRD3 wild-type): 0.214 µM
Ki [2]: > 10 µM
EC50 (DRD2 (D2 long receptor)): 3.55 ± 0.295 µM

CC[C@@H](CO)NC(=O)[C@@H]1C=C2c3cccc4[nH]cc(c34)C[C@H]2N(C)C1 [methylergonovine]
β-arrestin2 recruitment response, replicate points of concentration-response curve (5HT6; Log[Drug] -7.52): 58.3654 and 42.8218 and 40.7735 and 42.4938 and 47.6018 and 32.15
β-arrestin2 recruitment response, replicate points of concentration-response curve (5HT6; Log[Drug] -8): 38.2178 and 17.1349 and 29.2946 and 27.8088 and 40.0294 and 64.9029 and 31.7107 and 61.5077 and 39.0249 and 30.4136
β-arrestin2 recruitment response, replicate points of concentration-response curve (5HT6; Log[Drug] -8.52): 30.1013 and 10.6993 and 18.1498 and 24.4245 and 28.031 and 15.5168 and 0.8374 and 22.4349 and 11.5027 and 21.7874 and 10.2907 and 27.3285
β-arrestin2 recruitment response, replicate points of concentration-response curve (5HT6; Log[Drug] -9): 20.3729 and 3.9604 and 2.141 and 7.952 and 0.7859 and 8.081 and -4.077 and -4.555 and -0.4693 and 35.6884 and 0.3477 and 9.366
β-arrestin2 recruitment response, replicate points of concentration-response curve (5HT6; Log[Drug] -9.52): 14.1022 and -2.488 and 4.171 and 24.8948 and 4.829 and 2.461 and 0.773 and -7.38 and -5.613 and 10.7938 and 2.907 and -1.524
β-arrestin2 recruitment response, replicate points of concentration-response curve (5HT6; Log[Drug] -10): 15.029 and -5.149 and -2.667 and -0.08663 and 7.1866 and 6.531 and -8.448 and -13.3063 and 14.3186 and 3.129 and -2.7225 and -5.682
β-arrestin2 recruitment response, replicate points of concentration-response curve (5HT6; Log[Drug] -10.52): 3.317 and 8.465 and -0.4579 and 0.09901 and 5.631 and 26.1232 and -3.267 and -10.7113 and 5.834 and 27.1732 and 9.063 and 0.5697
β-arrestin2 recruitment response, replicate points of concentration-response curve (5HT6; Log[Drug] -11): 5.777 and -4.208 and -3.1745 and 6.856 and 4.8832 and -1.2628 and -4.113 and -7.095 and -5.0704 and 3.773 and -2.7003 and -4.128
β-arrestin2 recruitment response, replicate points of concentration-response curve (5HT6; Log[Drug] -11.52): -0.7317 and 4.554 and -0.9344 and -1.6151 and 0.5528 and 0.3631 and 17.5761 and 19.5362 and 55.6731 and -3.662 and -4.713 and -3.3
β-arrestin2 recruitment response, replicate points of concentration-response curve (5HT7A; Log[Drug] -8.52): 57.2072 and 62.1985 and 0.2034 and 43.345 and 17.0227 and 39.6469 and 24.6535 and -5.393 and 3.158
β-arrestin2 recruitment response, replicate points of concentration-response curve (5HT7A; Log[Drug] -9): 28.3493 and 32.0982 and 22.9584 and 37.3511 and 39.7632 and 14.7559 and 9.616 and 19.0912 and 1.923
β-arrestin2 recruitment response, replicate points of concentration-response curve (5HT7A; Log[Drug] -9.52): -6.008 and 0.109 and 1.017 and 1.4676 and 14.0366 and 7.578 and 5.289 and -11.615 and 5.562
β-arrestin2 recruitment response, replicate points of concentration-response curve (5HT7A; Log[Drug] -10): -3.669 and 16.1145 and 7.694 and 15.3008 and -0.2833 and 45.4083 and 32.224 and 8.8715 and 2.743
β-arrestin2 recruitment response, replicate points of concentration-response curve (5HT7A; Log[Drug] -10.52): 10.5565 and 33.0718 and 2.739 and 13.5571 and -3.967 and -24.3897 and -1.32 and -17.1773 and 11.1342
β-arrestin2 recruitment response, replicate points of concentration-response curve (5HT7A; Log[Drug] -11): -4.984 and -18.2941 and -15.3444 and 8.733 and -19.8489 and 29.4754 and -10.9833 and -5.732 and 20.4393
β-arrestin2 recruitment response, replicate points of concentration-response curve (5HT7A; Log[Drug] -11.52): -6.553 and -20.7643 and -12.3583 and 13.7605 and -14.4653 and -10.5493 and -19.7417 and -12.1995 and -5.987
β-arrestin2 recruitment response, replicate points of concentration-response curve (5HT7A; Log[Drug] -12): 42.2988 and -7.374 and -17.7056 and -12.5618 and -4.708 and 17.4441 and -2.395 and 25.3135 and 14.3302
